According to patent US20050208528A1, “Enhancement of the stability of oligonucleotides comprising phosphorothioate linkages by addition of water-soluble antioxidants” (ISIS Pharmaceuticals, Inc., priority 2001, published 2005):
Counter-ions that a name gives are not always drawn. Like-named read-outs stand apart in the source and are kept apart here. Values belong to the compound of their own block, whether it stands above or below them. In the oligonucleotide strings, read from the 5' end, every base follows the letter of its sugar. An asterisk marks phosphorothioate; unmarked linkages are phosphodiester. Other units and linkages are bracketed, terminal groups are in braces. A string of capitals states the bases alone. d = 2'-deoxy (DNA)

How the values were obtained:
ISIS 2302 [1] = assay: Desulfurization in bi-phasic cream formulation with oil-soluble antioxidants, 40° C. for 2 days; format: physicochemical; conditions: for Full PS content (%): 0.03% ISIS 2302, 0 mg gives 83.9; for Full PS content (%) / Protection of phosphorothioate oligonucleotides against desulfurization (in words): 40° C. 2 days; for Protection of phosphorothioate oligonucleotides against desulfurization (in words): biphasic cream
Method: (§1) A cream formulation was prepared containing 5.0 g BRIJ 58 (polyoxyethylene[20]cetyl ether), 0.03% ISIS 2302 and different concentrations of phenolic antioxidants.

ISIS 2302 [2] = assay: Desulfurization in bi-phasic cream formulation with water-soluble and oil-soluble antioxidants, 40° C. for 6 days; format: physicochemical; conditions: for Full PS content (%): cream, 0.03% ISIS 2302, 40° C. 6 days, no additive 84.7
Method: The cream was heated at 40° C. for 6 days and the oligonucleotide was isolated by ethanol precipitation and analyzed for full PS content by SAX chromatography.

ISIS 2302 [3] = assay: Long-term protection of creams by antioxidants, 40° C. for 1 month; format: physicochemical; set-up: full PS-content: unit: %; conditions: for full PS-content: cream, 0.03% ISIS 2302, 40° C. 1 month, LC/MS or SAX, no antioxidants 45.1, no excipients 91.3; for Protection against desulfurization (in words): bi-phasic cream formulation
Method: as §1

[4] = tested on: phosphorothioate oligonucleotide (ISIS-2302); assay: Desulfurization of phosphorothioate oligonucleotide in mono-phasic system with oil-soluble antioxidants (SAX chromatography); format: physicochemical; conditions: for Full PS content (area-% SAX): 0.5 g PEG-40-monostearate, 1.5 ml phosphate buffer pH 7.0, 1.5 mg ISIS-2302, 65° C. 20 hours, no antioxidants 51.0
Method: Polyethyleneglycol-40-monostearate (0.5 g), a water-soluble excipient which forms peroxides in the absence of antioxidants, was heated at 65° C. for 20 hours with 1.5 ml phosphate buffer, pH 7.0 and 1.5 mg phosphorothioate oligonucleotide (ISIS-2302) in the absence or presence of various oil-soluble antioxidants. Oligonucleotides were isolated by ethanol precipitation and phosphorothioate content was determined by strong anion exchange (SAX) chromatography.

ICAM-1 [5] = conditions: cited from earlier work
HLA-A and HLA-B = conditions: versus HLA-A and HLA-B; cited from earlier work
ICAM-1 [6] = conditions: C8161 human melanoma cells; cited from earlier work
C8161 cells = conditions: experimental metastasis assay, cited from earlier work
[7] = Crohn's disease, rheumatoid arthritis, psoriasis, ulcerative colitis, kidney transplant rejection models; cited from earlier work
[8] = cited from earlier work
[9] = 5 mg antioxidant in 100 g cream
[10] = 10 mg antioxidant in 100 g cream
[11] = 25 mg antioxidant in 100 g cream
[12] = 50 mg antioxidant in 100 g cream
[13] = 75 mg antioxidant in 100 g cream
[14] = 100 mg antioxidant in 100 g cream
[15] = cream with 0.03% ISIS 2302, before heating

Full PS content (%) (ISIS 2302 [1]; [9]): 85.8% | Full PS content (%) (ISIS 2302 [1]; [10]): 82.1% | Full PS content (%) (ISIS 2302 [1]; [11]): 80.1% | Full PS content (%) (ISIS 2302 [1]; [12]): 85.4% | Full PS content (%) (ISIS 2302 [1]; [13]): 84.4% | Full PS content (%) (ISIS 2302 [1]; [14]): 85.2% | Protection of phosphorothioate oligonucleotides against desulfurization (in words) (ISIS 2302 [1]): do not provide protection | Full PS content (%) (ISIS 2302 [2]; additive 5.2 mg): 77.3%
Compound: Cc1cc(C(C)(C)C)c(O)c(C(C)(C)C)c1 [BHT, butylated hydroxytoluene]

Full PS content (%) (ISIS 2302 [2]; additive 0.05 mg): 89.6% | Full PS content (%) (ISIS 2302 [2]; additive 0.2 mg): 91.8% | Full PS content (%) (ISIS 2302 [2]; additive 0.4 mg): 93.6% | Full PS content (%) (ISIS 2302 [2]; additive 1.0 mg): 93.7% | Full PS content (%) (ISIS 2302 [2]; additive 6.1 mg): 93.0% | Full PS content (%) (ISIS 2302 [2]; additive 52.2 mg): 94.5% | full PS-content (ISIS 2302 [3]; additive 0.01%): 28.4 | full PS-content (ISIS 2302 [3]; additive 0.05%): 30.8 | full PS-content (ISIS 2302 [3]; additive 0.2%): 67.3 | full PS-content (ISIS 2302 [3]; additive 0.8%): 81.9 | Protection against desulfurization (in words) (ISIS 2302 [3]): inhibited desulfurization
Compound: N[C@@H](CS)C(=O)O [L-cysteine]

Full PS content (area-% SAX) ([4]; 5 mg additive): 93.4 area-% SAX | Full PS content (%) (ISIS 2302 [2]; additive 11.0 mg): 79.0%
Compound: Cc1cccc(C(C)(C)C)c1O [2-t-butyl-6-methylphenol]

full PS-content (ISIS 2302 [3]; additive 0.01%): 61.2 | full PS-content (ISIS 2302 [3]; additive 0.05%): 71.6 | full PS-content (ISIS 2302 [3]; additive 0.2%): 72.5 | full PS-content (ISIS 2302 [3]; additive 0.8%): 86.7
Compound: O=S(=O)(O)CCS [2-MESA, Na salt, 2-mercaptoethanesulfonic acid]

full PS-content (ISIS 2302 [3]; additive 0.01%): 9.6 | full PS-content (ISIS 2302 [3]; additive 0.05%): 49.4 | full PS-content (ISIS 2302 [3]; additive 0.2%): 50.9 | full PS-content (ISIS 2302 [3]; additive 0.8%): 80.1 | Protection against desulfurization (in words) (ISIS 2302 [3]): inhibited desulfurization
Compound: N[C@@H](CCC(=O)N[C@@H](CS)C(=O)NCC(=O)O)C(=O)O [Glutathione]

Full PS content (%) (ISIS 2302 [2]; additive 7.5 mg): 84.8%
Compound: Vitamin E-TPGS

More lines, now with the values behind:

Compound: ISIS 2302: 2′-deoxyoligonucleotide, phosphorothioate backbone, 5′-GCC-CAA-GCT-GGC-ATC-CGT-CA-3′ (SEQ ID NO:1), targeted to 3′-UTR of human ICAM-1 gene (antisense GCCCAAGCTGGCATCCGTCA; DNA, all phosphorothioate, methylation of C not given here)
phosphorothioate content of the cream prior to heating (ISIS 2302 [1]; [15]): 95% | PS content of the cream prior to heating (ISIS 2302 [2]; [15]): about 95% | ICAM-1 expression (ICAM-1 [5]; human epidermal carcinoma cells (A431)): inhibit ICAM-1 expression | ICAM-1 expression (ICAM-1 [5]; human keratinocytes): inhibit ICAM-1 expression | ICAM-1 expression (ICAM-1 [5]; human lung carcinoma cells (A549)): inhibit ICAM-1 expression | ICAM-1 expression (ICAM-1 [5]; human umbilical vein cells): inhibit ICAM-1 expression | Specificity for target ICAM-1 over other potential nucleic acid targets (HLA-A and HLA-B): demonstrated specificity for its target ICAM-1 | ICAM-1 expression (mRNA levels, northern blot) (ICAM-1 [6]): markedly reduced ICAM-1 expression | Enhanced metastatic ability of C8161 cells resulting from TNF-α treatment (C8161 cells; TNF-α treated cells): eliminated the enhanced metastatic ability | Metastatic potential of C8161 cells (C8161 cells): decreased the metastatic potential | Anti-inflammatory effects in animal testing [7]: strong anti-inflammatory effects | Activity against Crohn's disease ([8]; humans): activity against Crohn's disease | Safety in humans ([8]; in vivo): good safety | Steroid-sparing effect ([8]; treated human subjects, five months post-treatment weaned from steroids and in remission): statistically significant steroid-sparing effect

Compound: Vitamin E
Full PS content (area-% SAX) ([4]; 15 mg additive): 89.7 area-% SAX | Protection of phosphorothioate oligonucleotide against desulfurization (in words) ([4]; mono-phasic system): inhibit desulfurization | Full PS content (%) (ISIS 2302 [1]; [9]): 84.0% | Full PS content (%) (ISIS 2302 [1]; [10]): 81.9% | Full PS content (%) (ISIS 2302 [1]; [11]): 80.6% | Full PS content (%) (ISIS 2302 [1]; [12]): 78.6% | Full PS content (%) (ISIS 2302 [1]; [13]): 78.7% | Full PS content (%) (ISIS 2302 [1]; [14]): 76.3% | Protection of phosphorothioate oligonucleotides against desulfurization (in words) (ISIS 2302 [1]): do not provide protection | Full PS content (%) (ISIS 2302 [2]; additive 7.4 mg): 83.7% | Protection from desulfurization (in words) (ISIS 2302 [2]; bi-phasic cream formulation): ineffective

Compound: O=C(O)CCCCC1CCSS1 (stereo not drawn) [α-lipoic acid]
full PS-content (ISIS 2302 [3]; additive 0.02%): 80.2 | full PS-content (ISIS 2302 [3]; additive 0.1%): 84.3 | full PS-content (ISIS 2302 [3]; additive 0.45%): 84.7 | full PS-content (ISIS 2302 [3]; additive 1.6%): 87.6 | Protection against desulfurization (in words) (ISIS 2302 [3]): inhibited desulfurization

Compound: O=S(=O)([O-])c1ccc2[nH]c(S)nc2c1.[Na+] [2-MBSA]
Full PS content (%) (ISIS 2302 [2]; additive 4.8 mg): 95.5% | full PS-content (ISIS 2302 [3]; additive 0.01%): 78.7 | full PS-content (ISIS 2302 [3]; additive 0.05%): 95.2 | full PS-content (ISIS 2302 [3]; additive 0.2%): 96.1 | full PS-content (ISIS 2302 [3]; additive 0.8%): 95.7 | Protection against desulfurization (in words) (ISIS 2302 [3]): inhibited desulfurization

Compound: ISIS 1939: 2′-deoxyoligonucleotide, phosphorothioate backbone, 5′-CCC-CCA-CCA-CTT-CCC-CTC-TC-3′ (SEQ ID NO:2), targeted to 3′-UTR of human ICAM-1 gene (antisense dC*dC*dC*dC*dC*dA*dC*dC*dA*dC*dT*dT*dC*dC*dC*dC*dT*dC*dT*dC)
ICAM-1 expression (mRNA levels, northern blot) (ICAM-1 [6]): markedly reduced ICAM-1 expression
